Experimental data taken from patent publication US20230011869A1 (Hoffmann-La Roche Inc., priority 2018, published 2023).
Where a name gives a salt, the structure may show the parent alone.

Each compound was assayed on Acinetobacter baumannii ATCC17978 (assay: Antimicrobial susceptibility testing: 90% growth inhibitory concentration (IC90) determination, Iso-Sensitest broth). Conditions: 90% growth inhibitory concentration, Acinetobacter baumannii ATCC17978, Iso-Sensitest broth, OD 600 nm over 16 h; read-out: ATCC17978 IC90.
Format: cell-based
Method in brief: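 A. baumannii ATCC17978 grown in Iso-Sensitest broth across 10 compound concentrations at 35±2 °C.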

Going from `Cc1cc(Nc2nccn3c(-c4ccc(OCc5cccnc5)c(F)c4F)cnc23)ccc1C(=O)N1CCC(CN)CC1` [Example 124, [4-(aminomethyl)-1-piperidyl]-[4-[[3-[2,3-difluoro-4-(3-pyridylmethoxy)phenyl]imidazo[1,2-a]pyrazin-8-yl]amino]-2-methyl-phenyl]methanone formate] to `Cc1cc(Nc2nccn3c(-c4ccc(OC(C)(C)C#N)c(F)c4F)cnc23)ccc1C(=O)N1CCC(CN)CC1` [Example 105, 2-[4-[8-[4-[4-(aminomethyl)piperidine-1-carbonyl]-3-methyl-anilino]imidazo[1,2-a]pyrazin-3-yl]-2,3-difluoro-phenoxy]-2-methyl-propanenitrile; formic acid], the IC90 rises from 900 nM to 3600 nM (4-fold).

Compared with `CCc1cc(Nc2nccn3c(-c4ccc(OCC#N)c(F)c4F)cnc23)ccc1C(=O)N1CCN(C(=O)C2CCNCC2)CC1` [Example 194, 2-[4-[8-[3-ethyl-4-[4-(piperidine-4-carbonyl)piperazine-1-carbonyl]anilino]imidazo [1,2-a]pyrazin-3-yl]-2,3-difluoro-phenoxy]acetonitrile formate], `COc1ccc(-c2cnc3c(Nc4ccc(C(=O)N5CCN(C(=O)[C@@H]6C[C@@H](O)CN6)CC5)c(C)c4)nccn23)c(F)c1F` [Example 471, [4-[[3-(2,3-difluoro-4-methoxyphenyl)imidazo[1,2-a]pyrazin-8-yl]amino]-2-methylphenyl]-[4-[(2S,4R)-4-hydroxypyrrolidine-2-carbonyl]piperazin-1-yl]methanone] is 3-fold lower in IC90: 290 nM for the first, 96 nM for the second.

First: COc1ccc(-c2cnc3c(Nc4ccc(C(=O)N5CCCCC5CN(C)C)c(C)c4)nccn23)cc1F (centres unmarked) [Example 253, [2-[(dimethylamino)methyl]pi-peridin-1-yl]-[4-[[3-(3-fluoro-4-methoxyphenyl)imidazo[1,2-a]pyrazin-8-yl]amino]-2-methylphenyl]methanone; for-mic acid]
Second: COc1ccc(-c2cnc3c(Nc4ccc(C(=O)N5CCN[C@H](CO)C5)c(C)c4)nccn23)cc1F [Example 419, [4-[[3-(3-fluoro-4-methoxyphenyl)imidazo[1,2-a]pyrazin-8-yl]amino]-2-methylphenyl]-[(3S)-3-(hydroxymethyl)piperazin-1-yl]methanone]
The IC90 of the first is 6.7-fold higher: 6700 nM for the first, 1000 nM for the second.

Going from `COc1ccc(-c2cnc3c(Nc4ccc(C(=O)N5CCN(C)CC5)c(C)c4)nccn23)cc1Cl` [Example 22, (4-((3-(3-chloro-4-methoxyphenyl)imidazo[1,2-a]pyrazin-8-yl)amino)-2-methylphenyl)(4-methylpiperazin-1-yl)methanone] to `COc1ccc(-c2cnc3c(Nc4ccc(C(=O)N5CCC(c6nncn6C)CC5)c(C)c4)nccn23)cc1F` [Example 357, [4-[[3-(3-fluoro-4-methoxyphenyl)imidazo[1,2-a]pyrazin-8-yl]amino]-2-methylphenyl]-[4-(4-methyl-1,2,4-triazol-3-yl)piperidin-1-yl]methanone], the IC90 falls from 1300 nM to 330 nM (3.9-fold).

Going from `COc1ccc(-c2cnc3c(Nc4ccc(C(=O)N5CCC(C(=O)NC[C@H](O)[C@@H](O)[C@H](O)[C@H](O)CO)CC5)c(C)c4)nccn23)c(F)c1F` [Example 300, 1-[4-[[3-(2,3-difluoro-4-methoxyphenyl)imidazo[1,2-a]pyrazin-8-yl]amino]-2-methylbenzoyl]-N-[(2S,3R,4R,5R)-2,3,4,5,6-pentahydroxyhexyl]piperidine-4-carboxamide] to `COc1ccc(-c2cnc3c(Nc4ccc(C(=O)N5CCC(C(=O)NCC(N)CO)CC5)c(C)c4)nccn23)cc1F` (centres unmarked) [Example 101, N-(2-amino-3-hydroxypropyl)-1-(4-((3-(3-fluoro-4-methoxyphenyl)imidazo[1,2-a]pyrazin-8-yl)amino)-2-methylbenzoyl)piperidine-4-carboxamide hydrochloride], the IC90 falls from 210 nM to 140 nM (1.5-fold).

`COc1ccc(-c2cnc3c(Nc4ccc(C(=O)N5CCC(C(=O)N6C[C@H](CO)[C@@H](O)[C@H](O)C6)CC5)c(C)c4)nccn23)c(F)c1F` [Example 296, [4-[[3-(2,3-difluoro-4-methoxyphenyl)imidazo[1,2-a]pyrazin-8-yl]amino]-2-methylphenyl]-[4-[(3R,4R,5R)-3,4-dihydroxy-5-(hydroxymethyl)piperidine-1-carbonyl]piperidin-1-yl]methanone] and `Cc1cc(Nc2nccn3c(-c4ccc(OC(F)F)cc4)cnc23)ccc1C(=O)N1CCC(C(=O)NCC2CNC2)CC1` [Example 68] are within 1.5-fold of each other in IC90: 180 nM for the first, 190 nM for the second.

`Cc1cc(Nc2nccn3c(-c4ccc(OC(F)F)cc4)cnc23)ccc1C(=O)N1CCN(C(=O)NC[C@@H](C)N)CC1` [Example 150, N-[(2R)-2-aminopropyl]-4-[4-[[3-[4-(difluoromethoxy)phenyl]imidazo[1,2-a]pyrazin-8-yl]amino]-2-methyl-benzoyl]piperazine-1-carboxamide hydrochloride] and `Cc1cc(Nc2nccn3c(-c4ccc(OC(F)F)cc4)cnc23)ccc1C(=O)N1CCN(C(=O)NC[C@H](C)N)CC1` [Example 151, N-[(2S)-2-aminopropyl]-4-[4-[[3-[4-(difluoromethoxy)phenyl]imidazo[1,2-a]pyrazin-8-yl]amino]-2-methyl-benzoyl]piperazine-1-carboxamide hydrochloride] are the same in IC90: 140 nM for the first, 140 nM for the second.

First: Cc1cc(Nc2nccn3c(-c4ccc(OC(F)F)cc4)cnc23)ccc1C(=O)N1CCN(C(=O)[C@H](C)N)CC1 [Example 226, (2S)-2-amino-1-[4-[4-[[3-4-(difluoromethoxy)phenyl]imidazo[1,2-a]pyrazin-8-yl]amino]-2-methyl-benzoyl]piperazin-1-yl]propan-1-one hydrochloride]
Second: Cc1cc(Nc2nccn3c(-c4cc(F)c(F)c(F)c4)cnc23)ccc1C(=O)N1CCC(CN)CC1 [Example 111, (4-(aminomethyl)piperidin-1-yl)(2-methyl-4-((3-(3,4,5-trifluorophenyl)imidazo[1,2-a]pyrazin-8-yl)amino)phenyl)methanone]
The IC90 of the first is 7.9-fold lower: 520 nM for the first, 4100 nM for the second.

Same assay, conditions: Acinetobacter baumannii, ATCC17978, 16 h, read-out: ATCC17978 IC90, 90% growth inhibitory concentration, Acinetobacter baumannii ATCC17978, Iso-Sensitest broth, OD 600 nm over 16 h

Compared with `COc1ccc(-c2cnc3c(Nc4ccc(C(=O)N5CCC(CN)CC5)c(C)c4)nccn23)cc1F` [Example 34, (4-(aminomethyl)piperidin-1-yl)(4-((3-(3-fluoro-4-methoxyphenyl)imidazo[1,2-a]pyrazin-8-yl)amino)-2-methylphenyl)methanone hydrochloride], `COc1ccc(-c2cnc3c(Nc4ccc(C(=O)N5CCNC6(CC6)C5)c(C)c4)nccn23)cc1F` [Example 416, 4,7-diazaspiro[2.5]octan-7-yl-[4-[[3-(3-fluoro-4-methoxyphenyl)imidazo[1,2-a]pyrazin-8-yl]amino]-2-methylphenyl]methanone; 2,2,2-trifluoroacetic acid] is 4.2-fold higher in IC90: 190 nM for the first, 800 nM for the second.

`CN[C@H](C)C(=O)N1CCN(C(=O)c2ccc(Nc3nccn4c(-c5ccc(OC(F)F)cc5)cnc34)cc2C)CC1` [Example 334, (2R)-1-[4-[4-[[3-[4-(difluoromethoxy)phenyl]imi-dazo[1,2-a]pyrazin-8-yl]amino]-2-methylbenzoyl]piperazin-1-yl]-2-(methylamino)propan-1-one; hydrochloride] and `CNCCC(=O)N1CCN(C(=O)c2ccc(Nc3nccn4c(-c5ccc(OC(F)F)cc5)cnc34)cc2C)CC1` [Example 332, 1-[4-[4-[[3-[4-(difluoromethoxy)phenyl]imi-dazo[1,2-a]pyrazin-8-yl]amino]-2-methylbenzoyl]piperazin-1-yl]-3-(methylamino)propan-1-one; hydrochloride] are within 1.5-fold of each other in IC90: 430 nM for the first, 410 nM for the second.

First: COC(=O)CC[C@H](N)C(=O)N1CCN(C(=O)c2ccc(Nc3nccn4c(-c5ccc(OC(F)F)cc5)cnc34)cc2C)CC1 [Example 444, methyl (4S)-4-amino-5-[4-[4-[[3-[4-(difluoromethoxy)phenyl]imi-dazo[1,2-a]pyrazin-8-yl]amino]-2-methylbenzoyl]piperazin-1-yl]-5-oxopentanoate; hydrochloride]
Second: Cc1cc(Nc2nccn3c(-c4ccc(OC(F)F)cc4)cnc23)ccc1C(=O)N1CCN(C(=O)[C@H]2CCNC[C@H]2O)CC1 [Example 511, [4-[[3-[4-(difluoromethoxy)phenyl]imi-dazo[1,2-a]pyrazin-8-yl]amino]-2-methylphenyl]-[4-[(3S,4S)-3-hydroxypiperidine-4-carbonyl]piperazin-1-yl]methanone]
The IC90 of the first is 3.4-fold higher: 1900 nM for the first, 560 nM for the second.

First: Cc1cc(Nc2nccn3c(-c4ccc(OC(F)F)cc4)cnc23)ccc1C(=O)N1CCC2(CCNCC2)C1 [Example 381, 2,8-diazaspiro[4.5]decan-2-yl-[4-[[3-[4-(difluoromethoxy)phenyl]imi-dazo[1,2-a]pyrazin-8-yl]amino]-2-methylphenyl]methanone; hy-drochloride]
Second: Cc1cc(Nc2nccn3c(-c4ccc(OC(F)F)cc4)cnc23)ccc1C(=O)N1CCC(N2CCOCC2)CC1 [Example 366, [4-[[3-[4-(difluoromethxoy)phenyl]imi-dazo[1,2-a]pyrazin-8-yl]amino]-2-methylphenyl]-(4-morpholin-4-ylpiperidin-1-yl)methanone]
The IC90 of the first is 4.5-fold higher: 2900 nM for the first, 640 nM for the second.

For `COc1ccc(-c2cnc3c(Nc4ccc(C(=O)N5CCN(C(=O)NCCN)CC5)c(C)c4)nccn23)c(F)c1F` [Example 475, N-(2-aminoethyl)-4-[4-[[3-(2,3-difluoro-4-methoxyphenyl)imidazo[1,2-a]pyrazin-8-yl]amino]-2-methylbenzoyl]piperazine-1-carboxamide; formic acid], the IC90 was 97 nM.

Same assay, conditions: read-out: ATCC17978 IC90; 90% growth inhibitory concentration, Acinetobacter baumannii ATCC17978, Iso-Sensitest broth, OD 600 nm over 16 h

Work on `Cc1cc(Nc2nccn3c(-c4ccc(OC(F)F)cc4)cnc23)ccc1C(=O)N1CCN(C(=O)CN)CC1` [Example 259, 2-amino-1-[4-[4-[[3-[4-(difluoromethoxy)phenyl]imi-dazo[1,2-a]pryazin-8-yl]amino]-2-methylbenzoyl]piperazin-1-yl]ethanone; formic acid] yielded an IC90 of 890 nM.
